ChEMBL document CHEMBL2169839 (J Med Chem, 2012)
Positions count from the first letter of the chain named.

What was measured:
[1] = target: T1, Aldo-keto reductase family 1 member C3 (Homo sapiens, UniProt P42330); assay: Inhibition of AKR1C3 overexpressed in human HCT116 cells assessed as inhibition of PR-104A conversion to hydroxylamine after 2 hrs by LC-MS/MS analysis
T1 sequence (P42330 whole entry): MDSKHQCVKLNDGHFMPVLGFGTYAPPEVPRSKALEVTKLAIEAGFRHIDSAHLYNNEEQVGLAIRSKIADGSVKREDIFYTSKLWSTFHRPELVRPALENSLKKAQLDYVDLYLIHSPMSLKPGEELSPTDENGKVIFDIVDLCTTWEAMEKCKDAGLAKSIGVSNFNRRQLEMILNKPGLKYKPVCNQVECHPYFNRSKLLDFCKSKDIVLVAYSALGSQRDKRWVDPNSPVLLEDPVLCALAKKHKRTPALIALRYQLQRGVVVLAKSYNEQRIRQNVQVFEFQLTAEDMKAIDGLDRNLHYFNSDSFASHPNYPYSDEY

[2] = target: T1, Aldo-keto reductase family 1 member C3; assay: biochemical
[3] = target: T2, Aldo-keto reductase family 1 member C1 (Homo sapiens, UniProt Q04828)
T2 sequence (Q04828 whole entry): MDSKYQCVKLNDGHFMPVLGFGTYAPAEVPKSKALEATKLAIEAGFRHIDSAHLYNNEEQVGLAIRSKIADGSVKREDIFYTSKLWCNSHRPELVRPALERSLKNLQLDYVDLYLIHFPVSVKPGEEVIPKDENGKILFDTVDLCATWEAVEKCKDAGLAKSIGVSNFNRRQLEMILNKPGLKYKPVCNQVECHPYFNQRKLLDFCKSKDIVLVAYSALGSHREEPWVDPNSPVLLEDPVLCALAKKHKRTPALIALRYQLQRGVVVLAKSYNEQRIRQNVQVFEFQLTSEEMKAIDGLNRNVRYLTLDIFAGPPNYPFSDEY

[4] = target: T3, Aldo-keto reductase family 1 member C4 (Homo sapiens, UniProt P17516)
T3 sequence (P17516 whole entry): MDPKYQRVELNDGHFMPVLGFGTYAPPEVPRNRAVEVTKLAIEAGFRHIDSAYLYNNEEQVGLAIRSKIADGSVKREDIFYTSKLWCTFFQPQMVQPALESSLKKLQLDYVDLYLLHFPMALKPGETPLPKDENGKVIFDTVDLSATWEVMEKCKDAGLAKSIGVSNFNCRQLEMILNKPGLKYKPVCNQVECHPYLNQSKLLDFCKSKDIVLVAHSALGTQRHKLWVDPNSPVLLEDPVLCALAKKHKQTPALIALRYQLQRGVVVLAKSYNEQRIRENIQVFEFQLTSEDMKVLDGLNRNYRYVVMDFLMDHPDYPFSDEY

[5] = target: T4, Aldo-keto reductase family 1 member C2 (Homo sapiens, UniProt P52895)
T4 sequence (P52895 whole entry): T2 sequence (Q04828 whole entry) with T38V, R47H, L54V, C87S, V151M, R170H, Q172L

[6] = target: T2, Aldo-keto reductase family 1 member C1; assay: Inhibition of human recombinant AKR1C1 expressed in Escherichia coli BL21(DE3) using phenanthrenequinone as substrate by spectrophotometric analysis
[7] = target: T1, Aldo-keto reductase family 1 member C3
[8] = target: T3, Aldo-keto reductase family 1 member C4; assay: Inhibition of human recombinant AKR1C4 expressed in Escherichia coli BL21(DE3) using phenanthrenequinone as substrate by spectrophotometric analysis

Structure (SMILES)	IC50 [1]	IC50 [2]	IC50 [3]	IC50 [4]	IC50 [5]	Ki [6]	Ki [7]	Ki [8]
O=C(O)c1cccc(S(=O)(=O)N2CCc3cc(Cl)ccc3C2)c1	39 nM	8.7 nM	7480 nM	> 30000 nM	> 30000 nM			
O=C(O)c1cccc(S(=O)(=O)NCCc2cccc(Cl)c2)c1	> 1000 nM	210 nM	> 30000 nM	> 30000 nM	> 30000 nM			
O=C(O)c1cccc(S(=O)(=O)N2CCc3ccc(Cl)cc3C2)c1	> 1000 nM	20 nM	> 30000 nM	> 30000 nM	> 30000 nM			
O=C(O)c1cn(S(=O)(=O)c2ccc(Br)cc2)c2ccccc12	407 nM	68 nM	830 nM	> 30000 nM	> 30000 nM			
O=C(c1cccc(S(=O)(=O)N2CCc3ccccc3C2)c1)N1CCOCC1	13 nM	78 nM	> 30000 nM	> 30000 nM	> 30000 nM			
O=C(O)c1cccc(S(=O)(=O)N2CCc3c(cccc3[N+](=O)[O-])C2)c1	29 nM	8.9 nM	24600 nM	> 30000 nM	> 30000 nM			
O=C(O)c1cccc(S(=O)(=O)N2CCc3cc([N+](=O)[O-])ccc3C2)c1	> 1000 nM	22 nM	> 30000 nM	> 30000 nM	> 30000 nM			
O=C(O)c1cccc(S(=O)(=O)N2CCc3ccc(F)cc3C2)c1	24 nM	21 nM	> 30000 nM	> 30000 nM	> 30000 nM			
COc1cccc2c1CCN(S(=O)(=O)c1cccc(C(=O)O)c1)C2	39 nM	16 nM	> 30000 nM	> 30000 nM	> 30000 nM			
O=C(O)c1cccc(S(=O)(=O)NCCc2ccccc2)c1	> 1000 nM	220 nM	> 30000 nM	> 30000 nM	> 30000 nM			
CN(C)C(=O)c1cccc(S(=O)(=O)N2CCc3ccccc3C2)c1	14 nM	53 nM	> 30000 nM	> 30000 nM	> 30000 nM			
O=C(O)c1cccc(S(=O)(=O)N2CCc3ccc([N+](=O)[O-])cc3C2)c1	72 nM	17 nM	> 30000 nM	> 30000 nM	> 30000 nM			
CC/C=C\C[C@H]1C(=O)CC[C@@H]1CC(=O)O [JASMONIC ACID]						106000 nM	162000 nM	37000 nM
O=C(O)c1cccc(S(=O)(=O)N2CC=CCC2)c1	> 1000 nM	390 nM	> 30000 nM	> 30000 nM	> 30000 nM			
Cc1ccc2c(c1)CN(S(=O)(=O)c1cccc(C(=O)O)c1)CC2	29 nM	13 nM	> 30000 nM	> 30000 nM	> 30000 nM			
O=C(O)c1cccc(S(=O)(=O)N2CCc3ccc(I)cc3C2)c1	45 nM	14 nM	> 30000 nM	> 30000 nM	> 30000 nM			
O=C(O)C(=O)Nc1cccc(S(=O)(=O)N2CCc3ccccc3C2)c1	> 1000 nM	62 nM	> 30000 nM	> 30000 nM	> 30000 nM			
O=C1CCCN1c1ccc(S(=O)(=O)N2CCc3ccccc3C2)cc1	24 nM	42 nM	> 30000 nM	> 30000 nM	> 30000 nM			
O=C(O)c1ccc(S(=O)(=O)N2CCc3ccccc3C2)cc1	> 1000 nM	1240 nM	> 30000 nM	> 30000 nM	> 30000 nM			
O=C(O)c1cccc(S(=O)(=O)N2CCc3cc(O)ccc3C2)c1	> 1000 nM	27 nM	> 30000 nM	> 30000 nM	> 30000 nM			
O=C(O)[C@H]1CCCN(S(=O)(=O)c2ccc3ccccc3c2)C1	> 1000 nM	400 nM	> 30000 nM	> 3000 nM	> 3000 nM			
COc1cc2c(cc1OC)CN(S(=O)(=O)c1cccc(C(=O)O)c1)CC2	> 1000 nM	160 nM	> 30000 nM	> 30000 nM	> 30000 nM			

The remaining lines, values ahead:

IC50 [1]	IC50 [2]	IC50 [3]	IC50 [4]	IC50 [5]	Ki [6]	Ki [7]	Ki [8]	Structure (SMILES)
13 nM	50 nM	> 30000 nM	> 30000 nM	> 30000 nM				CNC(=O)c1cccc(S(=O)(=O)N2CCc3ccccc3C2)c1
20 nM	14 nM	> 30000 nM	> 30000 nM	> 30000 nM				O=C(O)c1cccc(S(=O)(=O)N2CCc3c(I)cccc3C2)c1
28 nM	19 nM	740 nM	> 30000 nM	12100 nM				O=C(O)c1cccc(S(=O)(=O)N2CCc3cccc(Cl)c3C2)c1
453 nM	16 nM	25600 nM	> 30000 nM	> 30000 nM				O=C(O)c1cccc(S(=O)(=O)N2CCc3c(O)cccc3C2)c1
176 nM	8.6 nM	> 30000 nM	> 30000 nM	> 30000 nM				CC1Cc2ccccc2CN1S(=O)(=O)c1cccc(C(=O)O)c1 (stereo not drawn)
34 nM	25 nM	> 30000 nM	> 30000 nM	> 30000 nM				O=C(O)c1cccc(S(=O)(=O)N2CCc3sccc3C2)c1
> 1000 nM	210 nM	6610 nM	> 30000 nM	> 30000 nM				O=C(O)c1cccc(S(=O)(=O)N2CCc3ccccc32)c1
16 nM	11 nM	> 30000 nM	> 30000 nM	9320 nM				O=C(O)c1cccc(S(=O)(=O)N2CCc3c(Cl)cccc3C2)c1
24 nM	27 nM	> 30000 nM	> 30000 nM	> 30000 nM				CC1c2ccccc2CCN1S(=O)(=O)c1cccc(C(=O)O)c1 (stereo not drawn)
27 nM	13 nM	20300 nM	> 30000 nM	> 30000 nM				O=C(O)c1cccc(S(=O)(=O)N2CCc3ccccc3C2)c1
> 1000 nM	200 nM	> 30000 nM	> 30000 nM	> 30000 nM				O=C(O)c1cccc(S(=O)(=O)N2CCCc3ccccc32)c1
193 nM	53 nM	> 30000 nM	> 30000 nM	> 30000 nM				Nc1cccc2c1CCN(S(=O)(=O)c1cccc(C(=O)O)c1)C2
884 nM	47 nM	3890 nM	> 30000 nM	> 30000 nM				O=C(O)c1cccc(S(=O)(=O)N2Cc3ccccc3C2)c1
20 nM	12 nM	> 30000 nM	> 30000 nM	> 30000 nM				O=C(O)c1cccc(S(=O)(=O)N2CCc3ccc(Br)cc3C2)c1
12 nM	6.1 nM	> 30000 nM	> 30000 nM	> 30000 nM				O=C(O)c1cccc(S(=O)(=O)N2CCc3cc(Br)ccc3C2)c1
